Source: patent publication US20120094964A1, “SULFAMOYL BENZOIC ACID DERIVATIVES AS TRPM8 ANTAGONISTS” (priority 2009, published 2012)

Target: T1, human TRPM8 (Homo sapiens, UniProt Q7Z2W7)
T1 construct: expressed in transfected cells
Test: In Vitro human TRPM8 Functional Assay (intracellular Ca2+, Fluo4, FDSS, menthol activation)
Format: cell-based
Settings: HEK293 cells stably expressing human TRPM8; activation with L-(-)-Menthol; 11-point dose-response
Outline: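 Fluo4-loaded HEK293 cells stably expressing TRPM8 were preincubated with compound for 5 min at room temperature, then stimulated with L-menthol (20 μl of 90 μM stock) while fluorescence was read. IC50 values come from 11-point curves fitted to the mean of duplicate wells.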

T1 sequence (Q7Z2W7 whole entry): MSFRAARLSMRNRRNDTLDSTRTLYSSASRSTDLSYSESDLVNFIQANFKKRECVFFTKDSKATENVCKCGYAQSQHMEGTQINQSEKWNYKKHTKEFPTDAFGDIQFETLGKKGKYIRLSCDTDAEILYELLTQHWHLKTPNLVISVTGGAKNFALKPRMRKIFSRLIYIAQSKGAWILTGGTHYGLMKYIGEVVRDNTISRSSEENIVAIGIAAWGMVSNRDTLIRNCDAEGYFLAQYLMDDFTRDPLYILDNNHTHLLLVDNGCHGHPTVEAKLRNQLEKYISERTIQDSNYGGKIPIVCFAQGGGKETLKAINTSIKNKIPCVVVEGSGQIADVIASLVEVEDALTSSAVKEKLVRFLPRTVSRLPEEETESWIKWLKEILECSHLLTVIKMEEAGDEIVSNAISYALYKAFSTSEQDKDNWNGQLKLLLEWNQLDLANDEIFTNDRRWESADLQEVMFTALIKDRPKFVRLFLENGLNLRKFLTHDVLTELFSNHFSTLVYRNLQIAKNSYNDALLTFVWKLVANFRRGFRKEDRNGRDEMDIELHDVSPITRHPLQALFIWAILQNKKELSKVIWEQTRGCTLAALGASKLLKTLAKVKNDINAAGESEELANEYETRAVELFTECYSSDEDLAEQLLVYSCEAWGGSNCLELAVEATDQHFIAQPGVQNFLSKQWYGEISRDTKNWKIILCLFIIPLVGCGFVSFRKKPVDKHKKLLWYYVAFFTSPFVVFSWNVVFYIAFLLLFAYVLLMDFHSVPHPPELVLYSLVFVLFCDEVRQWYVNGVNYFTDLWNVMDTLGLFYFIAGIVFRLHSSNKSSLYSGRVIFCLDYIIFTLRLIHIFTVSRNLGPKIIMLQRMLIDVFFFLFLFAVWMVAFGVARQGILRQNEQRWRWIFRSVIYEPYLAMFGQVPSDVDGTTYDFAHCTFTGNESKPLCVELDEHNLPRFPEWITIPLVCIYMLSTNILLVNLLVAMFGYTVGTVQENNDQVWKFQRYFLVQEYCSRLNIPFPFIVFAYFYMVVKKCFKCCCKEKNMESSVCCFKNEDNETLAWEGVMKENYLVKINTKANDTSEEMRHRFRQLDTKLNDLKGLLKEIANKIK

SMILES: O=C(O)c1ccc(S(=O)(=O)N(Cc2csc(-c3ccccc3)n2)c2ncc(C(F)(F)F)cc2Cl)cc1 [Example 198, 4-(N-(3-Chloro-5-(trifluoromethyl)pyridin-2-yl)-N-((2-phenylthiazol-4-yl)methyl)sulfamoyl)benzoic acid]
- IC50: < 1000 nM

SMILES: O=C(O)c1ccc(S(=O)(=O)N(Cc2noc(-c3ccccc3)n2)c2ncc(C(F)(F)F)cc2Cl)cc1 [Example 199, 4-(N-(3-Chloro-5-(trifluoromethyl)pyridin-2-yl)-N-((5-phenyl-1,2,4-oxadiazol-3-yl)methyl)sulfamoyl)benzoic acid]
- IC50: < 1000 nM
